Test results as given in patent US20160176867A1, “MODIFIED BET-PROTEIN-INHIBITING DIHYDROQUINOXALINONES AND DIHYDROPYRIDOPYRAZINONES” (BAYER PHARMA AKTIENGESELLSCHAFT, priority 2013, published 2016).

How the values were obtained:
[1] = target: T1, BRD4 bromo domain 1 [BRD4(1)] (Homo sapiens, UniProt O60885); assay: BRD4/acetylated peptide H4 binding assay (TR-FRET), BRD4 bromo domain 1; settings: inhibition of BRD4(1)/Ac-H4 peptide interaction
T1 construct: N-terminally His6-tagged BRD4(1) (amino acids 67-152); made in house; host or cells: E. coli
Summary of the method: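 TR-FRET (665/620 nm ratio) measuring displacement of biotinylated tetra-acetylated H4 peptide from His6-BRD4(1) (aa 67-152, E. coli; typically 10 nM) at pH 7.5. Compound (11 concentrations, 0.1 nM–20 μM, duplicates) was preincubated 10 min at 22°C, then 1 h at 22°C and ≥3 h at 4°C; IC50 from 4-parameter fit normalized to DMSO and no-BRD4 controls.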

[2] = tested on: B16F10 cells; assay: Cell proliferation assay (alamarBlue), B16F10; type: cell-based; settings: Mus musculus, B16-F10; B16F10 (melanoma, BRAF wild-type), 96 hours
Experimental: In accordance with the invention, the ability of the substances to inhibit cell proliferation was determined. Cell viability was determined by means of the alamarBlue® reagent (Invitrogen) in a Victor X3 Multilabel Reader (Perkin Elmer). The excitation wavelength was 530 nm and the emission wavelength […].
The B16F10 cells (ATCC, CRL-6475) were sown at a concentration of 300-500 cells/well in 100 μl of growth medium (DMEM with phenol red, 10% FCS) on 96-well microtitre plates.
After overnight incubation at 37° C., the fluorescence values were determined (CI values). Then the plates were treated with various substance dilutions (1E-5 M, 3E-6 M, 1E-6 M, 3E-7 M, 1E-7 M, 3E-8 M, 1E-8 M) and incubated at 37° C. over 96 hours (MOLM-13, B16F10, CHL-1 cells) or 120 hours (MOLP-8 cells). Subsequently, the fluorescence values were determined (CO values). For the data analysis, the CI values were subtracted from the CO values and the results were compared between cells which had been treated with various dilutions of the substance or only with buffer solution. The IC50 values (substance concentration needed for 50% inhibition of cell proliferation) were calculated therefrom.

Row | IC50 [1] [nM] | IC50 [2] [nM] | SMILES
1 | 139 | 613 | C[C@@H]1C(=O)N(C)c2ccc(Nc3cccc(S(N)(=O)=O)c3)nc2N1C1CCOCC1 [Example 58, 3-{[(3R)-1,3-dimethyl-2-oxo-4-(tetrahydro-2H-pyran-4-yl)-1,2,3,4-tetrahydropyrido[2,3-b]pyrazin-6-yl]amino}-benzenesulphonamide]
2 | 466 | 1180 | C[C@@H]1C(=O)N(C)c2ccc(Nc3cccc(C(=O)N[C@H]4CC[C@H](N5CCN(CC6CC6)CC5)CC4)c3)nc2N1c1ccc(F)cc1 [Example 93]
3 | 20 | 52 | C[C@@H]1C(=O)N(C)c2ccc(Nc3cccc(S(=O)(=O)N(C)C)c3)nc2N1C1CCN(C)CC1 [Example 41, 3-{[(3R)-1,3-dimethyl-4-(1-methylpiperidin-4-yl)-2-oxo-1,2,3,4-tetrahydropyrido[2,3-b]pyrazin-6-yl]amino}-N,N-dimethylbenzene-sulphonamide]
4 | 38 | 1160 | C[C@@H]1C(=O)N(C)c2ccc(Nc3cccc(S(=O)(=O)N4CCN(CC(F)(F)F)CC4)c3)nc2N1C1CCNCC1 [Example 126, (3R)-1,3-dimethyl-4-(piperidin-4-yl)-6-[(3-{[4-(2,2,2-trifluoroethyl)piperazin-1-yl]sulphonyl}phenyl)amino]-3,4-dihydropyrido[2,3-b]pyrazin-2(1H)-one]
5 | 144 | 778 | C[C@@H]1C(=O)N(C)c2ccc(Nc3cccc(C(=O)NCCN(C)C)c3)nc2N1C1CCCC1 [Example 4, 3-{[(3R)-4-Cyclopentyl-1,3-dimethyl-2-oxo-1,2,3,4-tetrahydropyrido[2,3-b]pyrazin-6-yl]amino}-N-[2-(dimethylamino)ethyl]benzamide]
6 | 79 | 258 | C[C@@H]1C(=O)N(C)c2ccc(Nc3cccc(S(=O)(=O)N4CCOCC4)c3)cc2N1C1CCOCC1 [Example 8, (3R)-1,3-Dimethyl-6-{[3-(morpholin-4-ylsulphonyl)phenyl]amino}-4-(tetrahydro-2H-pyran-4-yl)-3,4-dihydroquinoxalin-2(1H)-one]
7 | 51 | 393 | CC(C)CN1c2nc(Nc3cccc(S(=O)(=O)N[C@H]4CC[C@H](N5CCN(CC6CC6)CC5)CC4)c3)ccc2N(C)C(=O)[C@H]1C [Example 45, N-{trans-4-[4-(cyclopropylmethyl)-piperazin-1-yl]cyclohexyl}-3-{[(3R)-4-isobulyl-1,3-dimethyl-2-oxo-1,2,3,4-tetrahydropyrido[2,3-b]pyrazin-6-yl]amino}-benzenesulphonamide]
8 | 193 | 478 | CC(C)N1c2nc(Nc3cccc(C(=O)N[C@H]4CC[C@H](N5CCN(CC6CC6)CC5)CC4)c3)ccc2N(C)C(=O)[C@H]1C [Example 79, N-{trans-4-[4-(cyclo-propylmethyl)piperazin-1-yl]cyclohexyl}-3-{[(3R)-4-isopropyl-1,3-dimethyl-2-oxo-1,2,3,4-tetrahydropyrido[2,3-b]pyrazin-6-yl]amino}benzamide]
9 | 106 | 164 | C[C@@H]1C(=O)N(C)c2ccc(N(C)c3cccc(S(=O)(=O)N(C)C)c3)nc2N1C1CCOCC1 [Example 54, 3-{[(3R)-1,3-dimethyl-2-oxo-4-(tetrahydro-2H-pyran-4-yl)-1,2,3,4-tetrahydropyrido[2,3-b]pyrazin-6-yl](methyl)-amino}-N,N-dimethyl-benzenesulphonamide]
10 | 77 | 423 | CC(C)N1c2nc(Nc3cccc(S(=O)(=O)NC4CCN(C)CC4)c3)ccc2N(C)C(=O)[C@H]1C [Example 51, 3-{[(3R)-4-isopropyl-1,3-dimethyl-2-oxo-1,2,3,4-tetrahydropyrido[2,3-b]pyrazin-6-yl]amino}-N-(1-methylpiperidin-4-yl)benzenesulphonamide]
11 | 43 | 314 | COc1ccc(S(=O)(=O)N2CCN(C)CC2)cc1Nc1ccc2c(n1)N(C1CCOCC1)[C@H](C)C(=O)N2C [Example 40, (3R)-6-({2-methoxy-5-[(4-methylpiperazin-1-yl)sulphonyl]phenyl}-amino)-1,3-dimethyl-4-(tetrahydro-2H-pyran-4-yl)-3,4-dihydropyrido[2,3-b]pyrazin-2(1H)-one]
12 | 94 | 442 | C[C@@H]1C(=O)N(C)c2ccc(Nc3cccc(C(=O)NC4CCN(C)CC4)c3)nc2N1C1CCCC1 [Example 2, 3-{[(3R)-4-Cyclopentyl-1,3-dimethyl-2-oxo-1,2,3,4-tetrahydropyrido[2,3-b]pyrazin-6-yl]amino}-N-(1-methylpiperidin-4-yl)benzamide]
13 | 19 | 190 | C[C@@H]1C(=O)N(C)c2ccc(Nc3cccc(S(=O)(=O)N[C@H]4CC[C@H](N5CCN(CC6CC6)CC5)CC4)c3)nc2N1Cc1ccccc1 [Example 38, 3-{[(3R)-4-benzyl-1,3-dimethyl-2-oxo-1,2,3,4-tetrahydropyrido[2,3-b]pyrazin-6-yl]amino}-N-{trans-4-[4-(cyclopropyl-methyl)piperazin-1-yl]cyclohexyl}-benzenesulphonamide]
14 | 26 | 30 | COc1ccc(S(=O)(=O)N2CCOCC2)cc1Nc1ccc2c(n1)N(C1CCOCC1)[C@H](C)C(=O)N2C [Example 28, (3R)-6-{[2-Methoxy-5-(morpholin-4-ylsulphonyl)phenyl]amino}-1,3-dimethyl-4-(tetrahydro-2H-pyran-4-yl)-3,4-dihydropyrido[2,3-b]pyrazin-2(1H)-one]
15 | 114 | 531 | C[C@@H]1C(=O)N(C)c2ccc(Nc3cccc(S(=O)(=O)NC4CCN(C)CC4)c3)nc2N1C1CCN(C(=O)OC(C)(C)C)CC1 [Example 57, tert-butyl 4-[(3R)-1,3-dimethyl-6-({3-[(1-methylpiperidin-4-yl)sulphamoyl]phenyl}-amino)-2-oxo-2,3-dihydro-pyrido[2,3-b]pyrazin-4(1H)-yl]piperidine-1-carboxylate]
16 | 91 | 695 | C[C@@H]1C(=O)N(C)c2ccc(Nc3cccc(C(=O)NC4CN(C)C4)c3)nc2N1C1CCCC1 [Example 3, 3-{[(3R)-4-Cyclopentyl-1,3-dimethyl-2-oxo-1,2,3,4-tetrahydropyrido[2,3-b]pyrazin-6-yl]amino}-N-(1-methylazetidin-3-yl)benzamide]
17 | 112 | 488 | C[C@@H]1C(=O)N(C)c2ccc(Nc3ccc4c(c3)S(=O)(=O)NC4)nc2N1C1CCOCC1 [Example 56, (3R)-6-[(1,1-dioxido-2,3-dihydro-1,2-benzothiazol-6-yl)amino]-1,3-dimethyl-4-(tetrahydro-2H-pyran-4-yl)-3,4-dihydropyrido[2,3-b]pyrazin-2(1H)-one]
18 | 21 | 188 | C[C@@H]1C(=O)N(C)c2ccc(Nc3cccc(S(=O)(=O)N4CCOCC4)c3)nc2N1C1CCN(C)CC1 [Example 47, (3R)-1,3-dimethyl-4-(1-methylpiperidin-4-yl)-6-{[3-(morpholin-4-ylsulphonyl)phenyl]-amino}-3-4-dihydropyrido-[2,3-b]pyrazin-2(1H)-one]
19 | 67 | 661 | C[C@@H]1C(=O)N(C)c2ccc(Nc3cccc(C(=O)N4CCN(C)CC4)c3)nc2N1C1CCCC1 [Example 1, (3R)-4-Cyclopentyl-1,3-dimethyl-6-({3-[(4-methylpiperazin-1-yl)carbonyl]phenyl}amino)-3,4-dihydropyrido[2,3-b]pyrazin-2(1H)-one]
